Experiment [1] has as its system Common Cutworm (Spodoptera litura). Put plainly: Insecticidal test on common cutworm (Spodoptera litura). The experiment is classed as in vivo. Conditions: 144 h, cabbage leaf immersed, second-instar larvae, counted 6 days after release, 25° C. As for the experimental part:
Insecticidal Test on Common Cutworm (Spodoptera litura)
A piece of cabbage leaf was immersed for 30 seconds in a liquid chemical prepared by diluting a test compound to a prescribed concentration. After air-drying, the piece was put into a 7-cm polyethylene cup and second-instar larvae of common cutworms were released thereinto. The polyethylene cups were set in an isothermal chamber thermostated at 25° C. From the release 6 days later, the dead and alive were counted. The test was carried out with two replications of 5 insects per a plot.

Experiment [2] has as its system Diamondback Moth (Plutella xylostella). Nature of the experiment: Insecticidal test on diamondback moth (Plutella xylostella). Conditions: 144 h, cabbage leaf immersed, second-instar larvae, counted 6 days after release, 25° C. The experiment is classed as in vivo. As for the experimental part:
Insecticidal Test on Diamondback Moth (Plutella xylostella)
A piece of cabbage leaf was immersed for 30 seconds in a liquid chemical prepared by diluting a test compound to a prescribed concentration. After air-drying, the piece was put into a 7-cm polyethylene cup and second-instar larvae of diamondback moths were released thereinto. The polyethylene cups were set in an isothermal chamber thermostated at 25° C. From the release 6 days later, the dead and alive were counted. The test was carried out with two replications of 5 insects per a plot.

A value given as a limit tells only on which side of the number the result lay.

What is called mortality is the share of the test organisms that died. As for `O=C(Nc1cccc(C(=O)Nc2ccc(OC(C(F)(F)F)C(F)(F)F)nc2Br)c1)c1ccccc1` [Compound No. 1-387, N-[2-bromo-6-(2,2,2-trifluoro-1-trifluoromethylethoxy)-pyridin-3-yl]3-(benzoylamino)benzamide], the mortality at 100 ppm in experiment [1] and in experiment [2] was at least 70% in each case.

Turning to `Cc1cc(C(F)(C(F)(F)F)C(F)(F)F)cc(C)c1NC(=O)c1cccc(Nc2ccc([N+](=O)[O-])cc2)c1` [Compound No. 5-9, N-[2,6-dimethyl-4-(heptafluoroisopropyl)phenyl]-3-(4-nitrophenylamino)-benzamide], the mortality at 100 ppm in experiment [1] and in experiment [2] was at least 70% throughout.

As for `O=C(Nc1cccc(C(=O)Nc2ccc3ncsc3c2)c1)c1ccccc1` [Compound No. 1-492, N-benzothiazol-6-yl 3-(benzoylamino)benzamide], the mortality at 100 ppm in experiment [1] is at least 70%.

Regarding `O=C(Nc1c(Br)cc(OC(F)(F)C(F)C(F)(F)F)cc1Br)c1cccc(NC(=O)c2ccccc2F)c1` (stereo not drawn) [Compound No. 2-8, N-(2,6-dibromo-4-(1,1,2,3,3,3-hexafluoropropoxy)phenyl) 3-[(2-fluorobenzoyl)amino]benzamide], the mortality at 100 ppm in experiment [1] and in experiment [2] was at least 70% throughout.

`Cc1cc(OS(=O)(=O)C(F)(F)F)cc(Br)c1NC(=O)c1cccc(NC(=O)c2ccccc2)c1` [Compound No. 1-369, N-(2-bromo-6-methyl-4-trifluoromethanesulfonyloxyphenyl) 3-(benzoylamino)benzamide]: the mortality at 100 ppm in experiment [1] and in experiment [2] was at least 70% throughout.

(Values after US8067638B2, “Amide derivative and insecticide containing the same” (Mitsui Chemicals, Inc., priority 2005, dated 2011).)
